From BindingDB's records for doi:10.1016/j.ejmech.2019.01.044 (Institute of Agricultural and Food Biotechnology, 2019) come the findings set out here.

SMILES strings stand for the structures. Bounds are passed on as bounds.

For this assay, the target named is T1, Proteasome subunit beta type-5 (Rattus norvegicus, UniProt P28075).
T1 sequence (P28075 whole entry): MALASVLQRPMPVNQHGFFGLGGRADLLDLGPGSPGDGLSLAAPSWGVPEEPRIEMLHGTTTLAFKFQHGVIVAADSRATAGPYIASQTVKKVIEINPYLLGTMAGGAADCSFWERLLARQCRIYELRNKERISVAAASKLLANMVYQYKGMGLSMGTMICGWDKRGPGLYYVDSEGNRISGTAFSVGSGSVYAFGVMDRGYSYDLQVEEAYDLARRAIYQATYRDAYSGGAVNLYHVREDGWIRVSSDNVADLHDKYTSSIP
The experiment in a line: Inhibition of chymotrypsin-like activity of rat liver 26 proteasome assessed as decrease in fluorescence using succinyl-Leu-Leu-Val-Tyr-4-methylcoumaryl-7-amide as substrate preincubated for 30 mins followed by addition of substrate and measured after 1 hr by fluorescence based method.
As to `COc1cc(O)ccc1CCCc1ccc(O)cc1` [BROUSSONIN B], the half-inhibitory concentration (IC50) was 178 nM.
As for `COc1cc(O)c(C(=O)c2ccc(O)cc2)c(O)c1`, the IC50 is more than 960 nM.
Take `Oc1ccc(CC2COc3cc(O)ccc3C2)cc1` (centres undefined): the IC50 came to 234 nM.
As for `C=CC(/C=C\c1ccc(O)cc1)c1ccc(O)cc1` (centres undefined), the half-maximal inhibitory concentration (IC50) turned out to be 71.3 nM.
